Laboratory results from ChEMBL document CHEMBL1146879, “Novel benzimidazole-based MCH R1 antagonists” (Bioorg Med Chem Lett, 2006).

Legend:
[1] = Bioavailability in rat at 3 mg/kg, iv and 5 to 10 mg/kg, po; assay type: ADME, organism-based; details: in vivo
[2] = target: Melanin-concentrating hormone receptor 1 (Homo sapiens, UniProt Q99705); experiment: Antagonist activity against MCH1R expressed in CHO cells assessed as inhibition of MCH-induced EC80 […] response by luciferase reporter gene assay; assay type: functional, cell-based
Chain of Melanin-concentrating hormone receptor 1 (Q99705 whole entry): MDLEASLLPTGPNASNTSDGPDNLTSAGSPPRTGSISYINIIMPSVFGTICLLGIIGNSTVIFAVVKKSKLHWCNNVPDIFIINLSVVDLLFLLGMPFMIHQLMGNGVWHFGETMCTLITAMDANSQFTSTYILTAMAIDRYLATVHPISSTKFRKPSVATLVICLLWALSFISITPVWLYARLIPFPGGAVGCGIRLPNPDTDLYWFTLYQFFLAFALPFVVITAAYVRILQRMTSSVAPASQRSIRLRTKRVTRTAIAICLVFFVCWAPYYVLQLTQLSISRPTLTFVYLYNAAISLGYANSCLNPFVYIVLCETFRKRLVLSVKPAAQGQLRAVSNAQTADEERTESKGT

Mus musculus [3] = experiment: Decrease in body weight of AKR/J DIO mouse relative to control after 15 days at 0.3 mg/kg, po; assay type: functional; design: scale not given: the % may be the effect or the level left
[4] = Ratio of drug level in brain against plasma in mouse; assay type: ADME, organism-based; details: brain and plasma, read-out: BPR
[5] = Bioavailability in mouse at 1.6 mg/kg, iv and 5.2 mg/kg, po; assay type: ADME, organism-based; details: in vivo
Mus musculus [6] = experiment: Decrease in body weight of AKR/J DIO mouse relative to control after 15 days at 10 mg/kg, po; assay type: functional; design: scale not given: the % may be the effect or the level left
Mus musculus [7] = experiment: Decrease in body weight of AKR/J DIO mouse relative to control after 15 days at 3 mg/kg, po; assay type: functional; design: scale not given: the % may be the effect or the level left
Mus musculus [8] = experiment: Decrease in body weight of AKR/J DIO mouse relative to control after 15 days at 1 mg/kg, po; assay type: functional; design: scale not given: the % may be the effect or the level left
[9] = Half life in mouse; assay type: ADME, organism-based; details: in vivo

| bioavailability [1] [%] | IC50 [2] [nM] | SMILES | also measured |
| --- | --- | --- | --- |
| ≥ 100 | 6.31 | Cn1c(N2CCCC2)nc2ccc(-n3cnc4cc(-c5ccc(Cl)cc5)sc4c3=O)cc21 |  |
| 31 | 5.01 | O=c1c2sc(-c3ccc(Cl)cc3)cc2ncn1-c1ccc2[nH]c(N3CCCCC3)nc2c1 |  |
|  | 15.8 | O=c1c2sc(-c3ccc(Cl)cc3)cc2ncn1-c1ccc2[nH]c(NC3CC3)nc2c1 |  |
| 40 | 5.01 | COCCCn1c(C)nc2cc(-n3cnc4cc(-c5ccc(Cl)cc5)sc4c3=O)ccc21 |  |
| 3 | 5.01 | COc1ccc(-n2c(C)nc3cc(-n4cnc5cc(-c6ccc(Cl)cc6)sc5c4=O)ccc32)cc1 |  |
| 0 | 5.01 | CN(CCN1CCCC1)c1nc2cc(-n3cnc4cc(-c5ccc(Cl)cc5)sc4c3=O)ccc2[nH]1 |  |
| ≥ 100 | 1.58 | CN(C)c1nc2ccc(-n3cnc4cc(-c5ccc(Cl)cc5)sc4c3=O)cc2n1C | Activity (Mus musculus [3]): -1.6%; Kp [4]: 2.6; bioavailability [5]: > 90%; Activity (Mus musculus [6]): -10%; Activity (Mus musculus [7]): -5.1%; Activity (Mus musculus [8]): -2.1%; half-life [9]: 6 h |
|  | 6.31 | CN(C)c1nc2cc(-n3cnc4cc(-c5ccc(Cl)cc5)sc4c3=O)ccc2n1C |  |
|  | 12.6 | COc1ccc(Cn2c(N(C)C)nc3cc(-n4cnc5cc(-c6ccc(Cl)cc6)sc5c4=O)ccc32)cc1 |  |
|  | 5.01 | Cc1nc2cc(-n3cnc4cc(-c5ccc(Cl)cc5)sc4c3=O)ccc2n1-c1ccc(N(C)C)cc1 |  |
|  | 15.8 | O=c1c2sc(-c3ccc(Cl)cc3)cc2ncn1-c1ccc2[nH]c(N3CCOCC3)nc2c1 |  |
| 0 | 6.31 | O=c1c2sc(-c3ccc(Cl)cc3)cc2ncn1-c1ccc2[nH]c(NCCN3CCCC3)nc2c1 |  |
|  | 7.94 | CC(C)Nc1nc2cc(-n3cnc4cc(-c5ccc(Cl)cc5)sc4c3=O)ccc2[nH]1 |  |
|  | 20 | Cc1ccc(-n2c(C)nc3cc(-n4cnc5cc(-c6ccc(Cl)cc6)sc5c4=O)ccc32)cc1 |  |
| 30 | 5.01 | CCCn1c(N(C)C)nc2cc(-n3cnc4cc(-c5ccc(Cl)cc5)sc4c3=O)ccc21 |  |
|  | 31.6 | Nc1nc2cc(-n3cnc4cc(-c5ccc(Cl)cc5)sc4c3=O)ccc2[nH]1 |  |
|  | 31.6 | COCCNc1nc2cc(-n3cnc4cc(-c5ccc(Cl)cc5)sc4c3=O)ccc2[nH]1 |  |
| 76 | 3.16 | O=c1c2sc(-c3ccc(Cl)cc3)cc2ncn1-c1ccc2[nH]c(N3CCCC3)nc2c1 |  |

| bioavailability [1] [%] | IC50 [2] [nM] | SMILES | also measured |
| --- | --- | --- | --- |
|  | 31.6 | Cc1nc2cc(-n3cnc4cc(-c5ccc(Cl)cc5)sc4c3=O)ccc2n1-c1ccccc1 |  |
|  | 7.94 | Cc1nc2cc(-n3cnc4cc(-c5ccc(Cl)cc5)sc4c3=O)ccc2n1-c1ccc(OC(C)C)cc1 |  |
|  | 2510 | COc1ccc(Cn2c(N(C)C)nc3ccc(-n4cnc5cc(-c6ccc(Cl)cc6)sc5c4=O)cc32)cc1 |  |
| 0 | 3.98 | CNc1nc2cc(-n3cnc4cc(-c5ccc(Cl)cc5)sc4c3=O)ccc2[nH]1 |  |
|  | 3.16 | CCOc1ccc(-n2c(C)nc3cc(-n4cnc5cc(-c6ccc(Cl)cc6)sc5c4=O)ccc32)cc1 |  |
| 24 | 6.31 | Cc1nc2cc(-n3cnc4cc(-c5ccc(Cl)cc5)sc4c3=O)ccc2n1CCN1CCOCC1 |  |
|  | 100 | CN1CCN(c2nc3cc(-n4cnc5cc(-c6ccc(Cl)cc6)sc5c4=O)ccc3[nH]2)CC1 |  |
|  | 25.1 | Cc1nc2cc(-n3cnc4cc(-c5ccc(Cl)cc5)sc4c3=O)ccc2[nH]1 |  |
| 21 | 5.01 | CCCn1c(N(C)C)nc2ccc(-n3cnc4cc(-c5ccc(Cl)cc5)sc4c3=O)cc21 |  |
| 0 | 6.31 | Cc1nc2cc(-n3cnc4cc(-c5ccc(Cl)cc5)sc4c3=O)ccc2n1C1CCCCC1 |  |
| 4 | 2.51 | CN(C)c1nc2cc(-n3cnc4cc(-c5ccc(Cl)cc5)sc4c3=O)ccc2[nH]1 |  |
|  | 25.1 | Cn1c(N2CCCC2)nc2cc(-n3cnc4cc(-c5ccc(Cl)cc5)sc4c3=O)ccc21 |  |
| ≥ 100 | 1.58 | Cc1nc2cc(-n3cnc4cc(-c5ccc(Cl)cc5)sc4c3=O)ccc2n1CCCO |  |
| 31 | 2 | Cc1nc2cc(-n3cnc4cc(-c5ccc(Cl)cc5)sc4c3=O)ccc2n1CCN1CCCC1 |  |
| 55 | 12.6 | CN(C)c1nc2ccc(-n3cnc4cc(-c5ccc(Cl)cc5)sc4c3=O)cc2n1CCO |  |
| 59 | 10 | CN(C)c1nc2cc(-n3cnc4cc(-c5ccc(Cl)cc5)sc4c3=O)ccc2n1CCO |  |
| 16 | 10 | COc1ccc(-n2c(N(C)C)nc3cc(-n4cnc5cc(-c6ccc(Cl)cc6)sc5c4=O)ccc32)cc1 |  |
